Source: patent publication US11986528B2, “Use of a mixture of lauroyl macrogolglyceride and polyethylene glycol as an excipient” (GATTEFOSSE SAS, priority 2020, dated 2024)
≈ marks a conversion by molar mass, not a printed value.

Key:
[1] = water at 25° C.; cited from earlier work
[2] = dissolution (liberation) of terfenadine from capsules, FIG. 4; format: physicochemical; conditions: after 120 minutes; dose 60 mg
Experimental: Another active principle, terfenadine, was formulated with Gelucire® 44/14. The mixture was cast into a capsule in a manner that was similar to that of Example 1 above which used piroxicam.
The dose was 60 mg, for a total of 680 mg of formulation.
The graph of FIG. 4 was therefore obtained, illustrating the liberation L (%) of the active principle as a function of time t in minutes, in which: • the curve C1 (invention) corresponds to a mixture of terfenadine/Gelucire® 44/14/PEG 6000, in which the ratio by weight of Gelucire® 44/14/PEG 6000 is 65/35: • the curve C2 (invention) corresponds to a mixture of terfenadine/Gelucire® 44/14/PEG 6000, in which the ratio by weight of Gelucire® 44/14/PEG 6000 is 60/40; • the curve C3 (control 1) corresponds to a mixture of terfenadine/PEG 6000; • the curve C4 (control 2) corresponds to terfenadine alone.

liberation L of terfenadine [2]: below 10%
SMILES: CC(C)(C)c1ccc(C(O)CCCN2CCC(C(O)(c3ccccc3)c3ccccc3)CC2)cc1 (centres unmarked) [terfenadine]
solubility in water [1]: 250 µg/mL (≈ 530 µM)
